Patent publication US20240277754A1, “IMMUNO-ONCOLOGY THERAPEUTIC COMPOSITION USING ADJUVANT INCLUDING LIPOPEPTIDES AND POLY (I:C)” (CHA VACCINE RESEARCH INSTITUTE CO., LTD, priority 2021, published 2024)

System: MC38 mouse colon cancer cells
Assay: Tumor suppressive efficacy in combination with other TLR ligands or saponin, colon cancer mouse model
Type: in vivo, C57BL/6 mice
Settings: L-pampo 45 μg/dose, QS21 10 μg/dose, Imiquimod 10 μg/dose, intratumoral four times at 3-day intervals, D20, 12 days after start
Method: Tumors were generated in mice by subcutaneous injection of 1×10^5 MC38 mouse colon cancer cells into the right flank of 8-week-old female C57BL/6 mice (OrientBio, Korea). The immuno-oncology drug L-pampo was prepared by mixing 25 μg of Pam3CSK4 and 20 μg of poly(I:C). […] This was administered into the tumor four times at 3-day intervals. Tumor sizes for all experimental groups were measured every three days. The long and short axes of the tumor were measured, and the size of the tumor was calculated as [½×size of the long axis×(size of the short axis)^2]. The tumor suppressive efficacy was analyzed based on the calculated tumor size.

Molecule | size of the tumor reduced compared to negative control (buffer)
QS-21 | about 57%
CC(C)Cn1cnc2c(N)nc3ccccc3c21 [imiquimod] | about 39%
